Reference: ChEMBL document CHEMBL1139965, “Synthesis and antifungal activities of new fluconazole analogues with azaheterocycle moiety” (2007)
In brackets after ≈: the same amount, converted by molar mass.

How the values were obtained:
Candida albicans = test: Antifungal activity against Candida albicans CA980001 by alamar blue assay; type: functional
Aspergillus fumigatus = test: Antifungal activity against Aspergillus fumigatus AF980003 by alamar blue assay; type: functional

Compound | MIC (Candida albicans) | MIC (Aspergillus fumigatus)
OC(Cn1cncn1)(Cn1cncn1)c1ccc(F)cc1F [FLUCONAZOLE] | 0.02 µg/mL (≈ 0.0653 µM) | 
O[C@@](Cn1cncn1)(Cn1ccc2cccnc21)c1ccc(F)cc1F | 0.007 µg/mL (≈ 0.0197 µM) | 21 µg/mL (≈ 59.1 µM)
OC(Cn1cncn1)(Cn1nc2ccccc2n1)c1ccc(F)cc1F (stereo unspecified) | > 0.036 µg/mL | > 100 µg/mL
O[C@@](Cn1cncn1)(Cn1ncc2ccccc21)c1ccc(Cl)cc1Cl | 0.0007 µg/mL (≈ 0.0018 µM) | > 100 µg/mL
O[C@@](Cn1cncn1)(Cn1cnc2ccccc21)c1ccc(Cl)cc1Cl | 0.026 µg/mL (≈ 0.067 µM) | > 100 µg/mL
CCC(C)n1ncn(-c2ccc(N3CCN(c4ccc(OCC5COC(Cn6cncn6)(c6ccc(Cl)cc6Cl)O5)cc4)CC3)cc2)c1=O (stereo unspecified) [ITRACONAZOLE] |  | 0.5 µg/mL (≈ 0.709 µM)
O=C1CCCc2c1ccn2C[C@@](O)(Cn1cncn1)c1ccc(Cl)cc1Cl | 0.07 µg/mL (≈ 0.173 µM) | > 100 µg/mL
O[C@@](Cn1cncn1)(Cn1cnc2ccccc21)c1ccc(F)cc1F | 0.233 µg/mL (≈ 0.656 µM) | > 100 µg/mL
CCOC(=O)Cc1cn(C[C@@](O)(Cn2cncn2)c2ccc(Cl)cc2Cl)c2ccccc12 | 0.006 µg/mL (≈ 0.0127 µM) | > 100 µg/mL
C[C@@H]1[C@H](O)[C@@H](C)/C=C/C=C/C=C/C=C/C=C/C=C/C=C/[C@H](O[C@@H]2O[C@H](C)[C@@H](O)[C@H](N)[C@@H]2O)C[C@@H]2O[C@](O)(C[C@@H](O)C[C@@H](O)[C@H](O)CC[C@@H](O)C[C@@H](O)CC(=O)O[C@H]1C)C[C@H](O)[C@H]2C(=O)O [AMPHOTERICIN B] | 0.12 µg/mL (≈ 0.13 µM) | 0.14 µg/mL (≈ 0.152 µM)
O[C@@](Cn1cncn1)(Cn1ncc2ccccc21)c1ccc(F)cc1F | 0.019 µg/mL (≈ 0.0535 µM) | 24 µg/mL (≈ 67.5 µM)
O[C@](CNc1ccc2[nH]ccc2c1)(Cn1cncn1)c1ccc(Cl)cc1Cl | 0.026 µg/mL (≈ 0.0646 µM) | > 100 µg/mL
O[C@@](Cn1cncn1)(Cn1ccc2cccnc21)c1ccc(Cl)cc1Cl | 0.0031 µg/mL (≈ 0.00798 µM) | 29 µg/mL (≈ 74.7 µM)
OC(Cn1cncn1)(Cn1nc2ccccc2n1)c1ccc(Cl)cc1Cl (stereo unspecified) | 0.01 µg/mL (≈ 0.0257 µM) | > 100 µg/mL
O[C@@](Cn1cncn1)(Cn1nnc2ccccc21)c1ccc(Cl)cc1Cl | 0.02 µg/mL (≈ 0.0514 µM) | > 100 µg/mL
O[C@@](Cn1cncn1)(Cn1nnc2ccccc21)c1ccc(F)cc1F | 0.025 µg/mL (≈ 0.0702 µM) | > 100 µg/mL
O[C@](CN1CCc2ccccc21)(Cn1cncn1)c1ccc(Cl)cc1Cl | 2.72 µg/mL (≈ 6.99 µM) | > 100 µg/mL
O=Cc1cn(C[C@@](O)(Cn2cncn2)c2ccc(Cl)cc2Cl)c2ccccc12 | 0.045 µg/mL (≈ 0.108 µM) | > 100 µg/mL
CCOC(=O)CCc1cn(C[C@@](O)(Cn2cncn2)c2ccc(Cl)cc2Cl)c2ccccc12 | 0.33 µg/mL (≈ 0.677 µM) | > 100 µg/mL
